According to publication PMC11575542 (Chemical Science, 2024):

Assays:
[1] = biological target: FabB (ketosynthase) (Escherichia coli, UniProt P0A953); format: binding
[2] = biological target: FabF (ketosynthase) (Escherichia coli, UniProt P0AAI5); format: binding
Sequence of FabF (ketosynthase) (P0AAI5 2-413): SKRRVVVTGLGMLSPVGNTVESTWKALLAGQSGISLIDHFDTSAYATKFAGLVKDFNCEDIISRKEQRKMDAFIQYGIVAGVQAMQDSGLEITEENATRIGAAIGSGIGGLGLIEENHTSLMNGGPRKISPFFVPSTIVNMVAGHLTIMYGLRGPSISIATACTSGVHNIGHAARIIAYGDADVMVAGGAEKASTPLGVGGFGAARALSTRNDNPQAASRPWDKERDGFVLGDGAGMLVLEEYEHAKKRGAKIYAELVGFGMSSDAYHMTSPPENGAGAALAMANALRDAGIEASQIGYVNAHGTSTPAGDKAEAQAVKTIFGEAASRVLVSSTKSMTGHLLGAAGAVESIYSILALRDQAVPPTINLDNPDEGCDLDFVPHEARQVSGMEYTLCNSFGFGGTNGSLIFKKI
Sequence of FabF (ketosynthase) (P0A6A8 2-78 partner): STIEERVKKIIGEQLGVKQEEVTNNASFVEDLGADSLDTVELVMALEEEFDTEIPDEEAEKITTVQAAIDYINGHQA

Sequence of FabB (ketosynthase) (P0A953 whole entry): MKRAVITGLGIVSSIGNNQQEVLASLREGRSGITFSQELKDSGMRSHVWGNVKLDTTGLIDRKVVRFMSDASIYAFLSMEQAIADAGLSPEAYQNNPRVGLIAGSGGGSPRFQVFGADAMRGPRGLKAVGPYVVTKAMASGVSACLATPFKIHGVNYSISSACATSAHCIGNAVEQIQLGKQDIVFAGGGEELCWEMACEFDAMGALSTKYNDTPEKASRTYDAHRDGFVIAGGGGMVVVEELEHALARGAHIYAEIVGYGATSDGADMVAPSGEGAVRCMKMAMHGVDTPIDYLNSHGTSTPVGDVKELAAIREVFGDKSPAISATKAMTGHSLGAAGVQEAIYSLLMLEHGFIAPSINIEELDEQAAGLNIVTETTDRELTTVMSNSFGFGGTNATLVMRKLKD
Sequence of FabB (ketosynthase) (P0A6A8 2-78 partner): as the sequence (P0A6A8 2-78 partner) above

IC50 [1]: ~22.5 µM
IC50 [2]: ~21.1 µM
Structure (SMILES): C/C=C/C/C=C/CCC(=O)[C@H]1O[C@H]1C(N)=O [cerulenin]
